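Grown in 96-well plates, cells were treated for 48 hours with each compound at five concentrations. Insufficient inhibition: endpoint recorded as highest concentration tested. GI50: concentration for 50% inhibition of growth. TGI: concentration producing complete growth inhibition.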
What was measured:
Assay in all cases: NCI tumour cell line growth inhibition, 48 h
[1] = system: SK-MEL-2 melanoma
[2] = system: SK-MEL-5 melanoma
[3] = system: MOLT-4 leukemia
[4] = system: SNB-19 CNS
[5] = system: ACHN renal
[6] = system: OVCAR-8 ovarian
[7] = system: NCI-H522 lung
[8] = system: NCI-H226 lung
[9] = system: SF-295 CNS
[10] = system: K-562 leukemia

| Compound | GI50 [1] [µM] | TGI [1] [µM] | GI50 [2] [µM] | TGI [2] [µM] | GI50 [3] [µM] | TGI [3] [µM] | GI50 [4] [µM] | TGI [4] [µM] | GI50 [5] [µM] | TGI [5] [µM] | GI50 [6] [µM] | TGI [6] [µM] | GI50 [7] [µM] | TGI [7] [µM] | GI50 [8] [µM] | TGI [8] [µM] | GI50 [9] [µM] | TGI [9] [µM] | GI50 [10] [µM] | TGI [10] [µM] |
| --- | --- | --- | --- | --- | --- | --- | --- | --- | --- | --- | --- | --- | --- | --- | --- | --- | --- | --- | --- | --- |
| CCC1C(C)C=NN1c1nc(N)nc(C(C#N)=Nc2ccc(N(C)C)cc2)n1 (stereo not given) | 32.2 | > 50 | 9.09 | 17.1 | 21.6 | > 50 | > 50 | > 50 | 9.17 | 17.1 | 10.6 | 31 | > 50 | > 50 | 10.8 | 28.8 | 8.96 | 16.1 | 2.73 | > 50 |
| Nc1ccccc1C#C/C=C\C#CC#C/C=C\C#Cc1ccccc1N | 14.2 | 65.3 | 8.43 | 22.9 | 1.01 | 18.4 | 16.2 | 64.8 | 5.38 | 40.4 | 4.8 | 29.5 | 3.93 | 16 | 3.56 | 27.2 | 5.23 | 30.2 | 0.781 | > 100 |
| CC1(C)CCCC2(C)C3C(O)CC2(C)C(O)C31 (stereo not given) |  | > 100 |  | > 100 |  | > 100 |  | > 100 |  | > 100 |  | > 100 |  | > 100 |  | > 100 |  | > 100 |  | > 100 |
| O=C(Nc1cccc(-n2cc(-c3ccncc3)c(-c3ccc(O)c(Cl)c3)n2)c1)c1ccc2c(c1)OCCO2 | > 100 | > 100 | 3.95 | > 100 | 4.88 | > 100 | > 100 | > 100 | 7.38 | > 100 | 3.67 | > 100 | 6.25 | > 100 | 12.2 | > 100 | 4.88 | > 100 | 4.26 | > 100 |
| O=c1[nH]c2cc([N+](=O)[O-])ccc2nc1/C(=N/Nc1ccccc1)C(O)c1ccco1 (stereo not given) |  | > 100 |  | > 100 |  | > 100 |  | > 100 |  | > 100 |  | > 100 |  | > 100 |  | 76.1 |  | > 100 |  | > 100 |
| Cc1cc(C(=O)/C=C/c2ccc[nH]2)ccc1-n1ccc(C(F)(F)F)n1 | > 100 | > 100 | 12.1 | 25.3 | 3.66 | > 100 | 21.4 | > 100 | 21.3 | > 100 | 6.27 | > 100 | 3.68 | 65.6 | 30 | > 100 | 7.97 | > 100 | 3.43 | > 100 |
| NCCCCCNc1noc(Cc2c[nH]c3cc(Br)ccc23)n1 | 3.22 | 16.3 | 2.08 | 16.2 | 2.44 | 18.6 | 7.67 | 25.6 | 9.02 | 21.7 | 3.74 | 39.4 | 0.748 | 12.6 | 12.7 | 26.5 | 2.53 | 25.3 | 0.469 | 14.7 |
| CN(C)C(=O)OCc1nc2c(N3CCOCC3)nc(-c3ccccc3)nc2n1C | 1.77 | 3.43 | 1.42 | 2.73 | 0.497 | 3.14 | 1.53 | 2.93 | 0.415 | 1.43 | 1.26 | 3.24 | 0.454 | 2.02 | 1.69 | 3.65 | 1.65 | 3.08 | 0.332 | 3.17 |
| Cc1ccc(S(=O)(=O)NC(=O)NCCc2ccccc2)cc1 |  | > 100 |  | > 100 |  | > 100 |  | > 100 |  | > 100 |  | > 100 |  | > 100 |  | > 100 |  | > 100 |  | > 100 |
| Cc1c(Cl)c(=O)oc2cc(OC/C=C3\CCC(=O)O3)ccc12 | 15.7 | 40.5 | 21 | 52.2 | 16.5 | > 100 | 17.7 | 51.7 | 4.22 | 17.9 | 20 | 47.2 | 11 | 24.2 | 34.6 | > 100 | 62.9 | > 100 | 28.2 | 78.7 |
| CC(C)c1ccc(C2NC(=S)NC3=C2c2ccccc2C3=O)cc1 (stereo not given) |  | 41.7 |  | 52.8 |  | > 65 |  | > 55.2 |  | > 55.9 |  | > 62.1 |  | 41.9 |  | > 64.6 |  | > 52.4 |  | > 60 |
| C1OC1CN1CCN(CC2CO2)CC1 (stereo not given) |  | > 100 |  | > 100 |  | > 62.4 |  | > 100 |  | > 100 |  | > 100 |  | > 100 |  | > 100 |  | > 100 |  | > 100 |
| O=C(O)[C@@H]1OCCOCCO[C@@H](C(=O)O)[C@H](C(=O)O)OCCOCCO[C@H]1C(=O)O |  | > 100 |  | > 100 |  | > 100 |  | > 100 |  | > 100 |  | > 100 |  | > 100 |  | > 100 |  | > 100 |  | > 100 |
| CCCOc1cc2ccccc2cc1C(=O)Nc1nc(NC)c2c(ccc3nccc32)[nH]1 | 0.325 | 1.36 | 0.994 | 2.2 | 0.496 | 2.32 | 0.701 | 2.23 | 0.52 | 1.91 | 0.89 | 2.3 | 0.0449 | 0.219 | 1.65 | 3.8 | 0.0866 | 1.2 | 0.0883 | 0.912 |
| Cc1ccc(S(=O)(=O)OCC#CCOS(=O)(=O)c2ccc(C)cc2)cc1 | 3.07 | 9.66 | 3.69 | 9.96 | 2.39 | 7.81 | 7.11 | 22.2 | 2.27 | 5.94 | 2.45 | > 21.5 | 1.19 | 3.12 | 5.83 | 12.9 | 1.74 | 3.62 | 2.29 | 10.3 |
